Reference: patent publication US7582280B2, “Conjugates of antioxidants with metal chelating ligands for use in diagnostic and therapeutic applications” (Bracco International B.V., priority 2000, dated 2009)
Structures can show the parent of a compound that is named as a salt.

Assays:
[1] = test system: myocardial lesions induced by ischemia-reperfusion; conditions: rats; cited from earlier work
[2] = Relaxivity in water (relaxometer); type: physicochemical; conditions: 38° C., IBM PC/20 multispec relaxometer
Description: (§1) Relaxivity of a paramagnetic material in the presence of a large protein such as human serum albumin may be used to study the ability of the compounds of the present invention to bind the target protein. As such, when a small molecule binds a large protein, the relaxivity of the former will increase because of an increase in its rotational correlation time. This increase in relaxivity may be used not only to measure the extent of binding but also to evaluate the viability of the paramagnetic agent as a blood pool contrast medium.
(§2) The relaxivity of the conjugates 22a and 22b in water as well as in water containing a known amount (20%, v/v) of a HSA preparation, known as, seronom (Table 1) were studied.
(§3) The relaxation time of the samples (22a or 22b) in seronom (T1Gd-ligand in seronom) and in water (T1Gd-ligand in water) were measured at 38° C. using an IBM PC/20 multispec relaxometer. The relaxivity of the samples in seronom (r1Gd-ligand in seronom) and in water (r1Gd-ligand in water) were calculated by the following equations: r1Gd-ligand in seronom=(1/T1Gd-ligand in seronom−1/T1seronom)/[Gd-ligand] r1Gd-ligand in water=(1/T1Gd-ligand in water−1/T1water)/[Gd-ligand],
(§4) where [Gd-ligand] is the concentration of the chelate 22a or 22b, which was determined by ICP^11; T1seronom is the relaxation time for pure aqueous seronom; T1water is the relaxation time for pure water.

[3] = target: T1, seronom (HSA preparation) (Homo sapiens, UniProt P02768); test: Relaxivity in water containing 20% v/v seronom (HSA preparation); type: physicochemical; conditions: for Relaxivity in aqueous seronom r1Gd-ligand in seronom: 38° C., water containing 20% v/v seronom; for increase in relaxivity in the presence of seronom: seronom versus water
Description: as §1, §2, §3, §4

[4] = target: T1, seronom (HSA preparation); test: Fraction bound in aqueous seronom by centrifree micropartition ultrafiltration and ICP [Gd]; type: in vitro ADME; conditions: centrifuged 500 xg 45 min, [Gd] by ICP
Method: After the measurement, the sample in aqueous seronom was placed in a centrifree micropartition device (Millipore, Beverly, Mass.). The device was centrifuged at 500 xg for 45 min in a fixed angle rotor (Beckman Model J2-21M, JA-20 rotor). The solution (0.5 mL) was taken from below the filter (unbound Gd-ligand) for [Gd] ICP measurement. The [Gd] of the uncentrifuged sample was also measured as a control. The Fraction Bound was calculated by the following equation: Fraction Bound=([Gd-ligand]control−[Gd-ligand]unbound)/[Gd-ligand]control. Table 1 details the results of the tests.

T1 sequence (P02768 25-609): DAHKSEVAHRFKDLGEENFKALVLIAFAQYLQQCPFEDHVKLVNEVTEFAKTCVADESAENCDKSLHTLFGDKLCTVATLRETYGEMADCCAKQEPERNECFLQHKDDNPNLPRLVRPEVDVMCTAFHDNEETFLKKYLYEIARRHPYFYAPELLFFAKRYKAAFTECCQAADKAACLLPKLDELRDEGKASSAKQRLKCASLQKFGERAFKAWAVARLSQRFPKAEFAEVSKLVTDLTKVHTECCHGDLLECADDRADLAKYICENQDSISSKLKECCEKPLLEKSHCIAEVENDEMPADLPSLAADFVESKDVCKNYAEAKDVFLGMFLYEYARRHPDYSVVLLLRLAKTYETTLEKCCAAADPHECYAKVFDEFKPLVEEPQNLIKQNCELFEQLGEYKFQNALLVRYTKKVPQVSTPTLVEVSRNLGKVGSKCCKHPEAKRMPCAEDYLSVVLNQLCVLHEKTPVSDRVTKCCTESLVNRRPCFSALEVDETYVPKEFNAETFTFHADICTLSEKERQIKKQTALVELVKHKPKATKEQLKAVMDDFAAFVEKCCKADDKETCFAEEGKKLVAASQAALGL

Row | Relaxivity in water r1Gd-ligand in water [2] [mM⁻¹ s⁻¹] | Relaxivity in aqueous seronom r1Gd-ligand in seronom [3] [mM⁻¹ s⁻¹] | increase in relaxivity in the presence of seronom [3] [%] | fraction unbound [4] | SMILES | inhibition of myocardial lesions induced by ischemia-reperfusion [1]
1 |  |  |  |  | CCCCCCCCCCCCCCCCCCOC1=C(O)[C@@H]([C@@H](O)CO)OC1=O [2-O-octadecylascorbic acid] | markedly inhibit
2 | 4.83 | 6.38 | 32 | 0.912 | O=C(O)CN1CCN(CC(=O)O)CCN(CC(=O)NCC(=O)NC[C@@H](O)[C@@H]2OC(=O)C(O)=C2O)CCN(CC(=O)O)CC1 [Compound 22a, 1,4,7,10-tetraazacyclododecane-1,4,7-triacetic acid, 10-[2-[[2-[[(2R)-2-[(2S)-2,5-dihydro-3,4-dihydroxy-5-oxo-2-furanyl]-2-hydroxyethyl]amino]-2-oxoethyl]amino]2-oxoethyl]-, gadolinium salt] | 
3 | 7.20 | 8.18 | 14 | 0.891 | O=C(O)CN1CCN(CC(=O)O)CCN(CC(=O)NCC(=O)NCC2CCC(C(=O)NC[C@@H](O)[C@@H]3OC(=O)C(O)=C3O)CC2)CCN(CC(=O)O)CC1 (stereo partly drawn) [Compound 22b, 1,4,7,10-tetraazacyclododecane-1,4,7-triacetic acid, 10-[2-[[2-[[[4-[[[(2R)-2-[(2S)-2,5-dihydro-3,4-dihydroxy-5-oxo-2-furanyl]-2-hydroxyethyl]amino]carbonyl]cyclohexyl]methyl]amino]-2-oxoethyl]amino]2-oxoethyl]-, gadolinium salt] | 
